Holding throughout (test): biochemical
Holding throughout (parameters): DiscoveRx KINOMEscan active site-directed competition binding; percent of control kinase bound to immobilised ligand

In experiment [1] the target is T1, DLK (Homo sapiens, UniProt Q12852).
T1 construct: gene MAP3K12
T1 sequence (Q12852 1-859): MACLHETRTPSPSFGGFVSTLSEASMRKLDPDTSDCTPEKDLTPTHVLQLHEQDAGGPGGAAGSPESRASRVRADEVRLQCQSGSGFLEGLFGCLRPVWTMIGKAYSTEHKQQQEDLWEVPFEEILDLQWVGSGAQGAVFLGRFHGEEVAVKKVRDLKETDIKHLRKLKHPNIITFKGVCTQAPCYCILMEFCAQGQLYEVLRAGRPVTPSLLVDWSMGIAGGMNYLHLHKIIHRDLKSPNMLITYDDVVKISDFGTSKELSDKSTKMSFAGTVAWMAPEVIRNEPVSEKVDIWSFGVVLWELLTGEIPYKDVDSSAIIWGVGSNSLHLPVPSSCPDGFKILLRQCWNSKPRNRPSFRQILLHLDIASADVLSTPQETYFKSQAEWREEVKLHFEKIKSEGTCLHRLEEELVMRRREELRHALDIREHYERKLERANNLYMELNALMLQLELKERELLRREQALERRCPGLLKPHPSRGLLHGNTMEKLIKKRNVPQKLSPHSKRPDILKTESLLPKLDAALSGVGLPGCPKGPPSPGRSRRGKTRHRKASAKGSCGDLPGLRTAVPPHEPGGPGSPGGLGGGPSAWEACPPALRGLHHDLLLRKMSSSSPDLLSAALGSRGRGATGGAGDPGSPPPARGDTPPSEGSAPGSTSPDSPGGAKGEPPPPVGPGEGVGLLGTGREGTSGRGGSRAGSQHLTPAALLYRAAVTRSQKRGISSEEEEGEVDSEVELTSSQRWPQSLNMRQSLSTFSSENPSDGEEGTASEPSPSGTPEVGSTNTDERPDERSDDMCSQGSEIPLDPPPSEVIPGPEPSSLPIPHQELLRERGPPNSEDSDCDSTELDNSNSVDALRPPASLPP

Experiment [2] concerns the target FLT1 (Homo sapiens, UniProt P17948).
Experiment [3] deals with T2, MEK1 (Homo sapiens, UniProt Q02750).
T2 construct: gene MAP2K1
T2 sequence (Q02750 whole entry): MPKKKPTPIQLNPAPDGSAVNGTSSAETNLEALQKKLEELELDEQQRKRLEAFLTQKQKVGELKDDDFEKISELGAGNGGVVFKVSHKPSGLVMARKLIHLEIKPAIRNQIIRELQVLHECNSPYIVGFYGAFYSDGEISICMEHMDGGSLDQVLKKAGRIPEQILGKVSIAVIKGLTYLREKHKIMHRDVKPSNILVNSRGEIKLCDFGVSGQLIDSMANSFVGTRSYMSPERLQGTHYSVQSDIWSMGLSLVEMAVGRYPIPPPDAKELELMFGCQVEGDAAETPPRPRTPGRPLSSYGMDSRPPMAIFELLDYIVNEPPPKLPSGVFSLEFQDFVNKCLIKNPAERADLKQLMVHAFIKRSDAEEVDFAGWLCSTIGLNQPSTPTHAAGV

In experiment [4] the target is T3, NEK2 (Homo sapiens, UniProt P51955).
T3 sequence (P51955 1-445): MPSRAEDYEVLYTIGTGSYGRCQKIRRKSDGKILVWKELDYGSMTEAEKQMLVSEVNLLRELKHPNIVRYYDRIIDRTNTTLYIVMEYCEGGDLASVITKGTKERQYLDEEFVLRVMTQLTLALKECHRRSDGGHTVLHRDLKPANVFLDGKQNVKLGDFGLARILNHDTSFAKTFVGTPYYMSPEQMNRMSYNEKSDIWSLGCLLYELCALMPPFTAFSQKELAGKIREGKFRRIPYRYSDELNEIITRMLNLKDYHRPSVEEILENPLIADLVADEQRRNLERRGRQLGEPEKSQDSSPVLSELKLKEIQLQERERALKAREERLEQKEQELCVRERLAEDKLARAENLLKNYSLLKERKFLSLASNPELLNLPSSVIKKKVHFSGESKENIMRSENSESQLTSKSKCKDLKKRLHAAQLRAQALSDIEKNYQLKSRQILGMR

Experiment [5] has as its target T4, PRKD2 (Homo sapiens, UniProt Q9BZL6).
T4 sequence (Q9BZL6 1-878): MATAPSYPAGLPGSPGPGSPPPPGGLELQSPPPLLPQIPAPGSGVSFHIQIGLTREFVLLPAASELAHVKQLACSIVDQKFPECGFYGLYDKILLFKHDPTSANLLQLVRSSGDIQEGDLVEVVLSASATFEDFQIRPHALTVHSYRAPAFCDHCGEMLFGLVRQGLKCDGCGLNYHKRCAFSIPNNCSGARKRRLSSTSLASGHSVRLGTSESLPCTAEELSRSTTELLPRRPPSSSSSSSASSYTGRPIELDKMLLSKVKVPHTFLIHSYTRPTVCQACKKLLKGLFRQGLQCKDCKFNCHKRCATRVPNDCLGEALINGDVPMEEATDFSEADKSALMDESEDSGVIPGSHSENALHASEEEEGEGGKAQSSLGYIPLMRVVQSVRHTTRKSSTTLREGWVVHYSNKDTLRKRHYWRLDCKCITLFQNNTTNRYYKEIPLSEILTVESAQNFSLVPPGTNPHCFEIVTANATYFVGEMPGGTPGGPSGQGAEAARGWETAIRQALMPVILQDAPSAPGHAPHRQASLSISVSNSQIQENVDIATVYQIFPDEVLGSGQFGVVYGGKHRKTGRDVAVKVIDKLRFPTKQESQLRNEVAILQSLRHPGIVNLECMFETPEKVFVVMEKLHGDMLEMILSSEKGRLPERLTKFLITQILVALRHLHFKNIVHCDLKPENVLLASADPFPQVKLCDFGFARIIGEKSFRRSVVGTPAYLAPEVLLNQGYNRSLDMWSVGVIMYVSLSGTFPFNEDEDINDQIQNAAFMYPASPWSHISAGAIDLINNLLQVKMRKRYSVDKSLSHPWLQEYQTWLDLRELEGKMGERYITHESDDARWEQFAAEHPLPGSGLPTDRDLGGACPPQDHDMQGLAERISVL

Setting [6] is: read-out: Niraparib (MK-4827) / %Ctrl @ 10000nM.
Where [7] appears, read: read-out: Talazoparib (BMN 673) / %Ctrl @ 10000nM.
[8] abbreviates: read-out: Rucaparib / %Ctrl @ 10000nM, binding competition, % of control.
[9] abbreviates: read-out: Olaparib / %Ctrl @ 10000nM.

Structures are written as SMILES. Like-named read-outs stand apart in the source and are kept apart here.

Sequence of FLT1 (P17948 whole entry): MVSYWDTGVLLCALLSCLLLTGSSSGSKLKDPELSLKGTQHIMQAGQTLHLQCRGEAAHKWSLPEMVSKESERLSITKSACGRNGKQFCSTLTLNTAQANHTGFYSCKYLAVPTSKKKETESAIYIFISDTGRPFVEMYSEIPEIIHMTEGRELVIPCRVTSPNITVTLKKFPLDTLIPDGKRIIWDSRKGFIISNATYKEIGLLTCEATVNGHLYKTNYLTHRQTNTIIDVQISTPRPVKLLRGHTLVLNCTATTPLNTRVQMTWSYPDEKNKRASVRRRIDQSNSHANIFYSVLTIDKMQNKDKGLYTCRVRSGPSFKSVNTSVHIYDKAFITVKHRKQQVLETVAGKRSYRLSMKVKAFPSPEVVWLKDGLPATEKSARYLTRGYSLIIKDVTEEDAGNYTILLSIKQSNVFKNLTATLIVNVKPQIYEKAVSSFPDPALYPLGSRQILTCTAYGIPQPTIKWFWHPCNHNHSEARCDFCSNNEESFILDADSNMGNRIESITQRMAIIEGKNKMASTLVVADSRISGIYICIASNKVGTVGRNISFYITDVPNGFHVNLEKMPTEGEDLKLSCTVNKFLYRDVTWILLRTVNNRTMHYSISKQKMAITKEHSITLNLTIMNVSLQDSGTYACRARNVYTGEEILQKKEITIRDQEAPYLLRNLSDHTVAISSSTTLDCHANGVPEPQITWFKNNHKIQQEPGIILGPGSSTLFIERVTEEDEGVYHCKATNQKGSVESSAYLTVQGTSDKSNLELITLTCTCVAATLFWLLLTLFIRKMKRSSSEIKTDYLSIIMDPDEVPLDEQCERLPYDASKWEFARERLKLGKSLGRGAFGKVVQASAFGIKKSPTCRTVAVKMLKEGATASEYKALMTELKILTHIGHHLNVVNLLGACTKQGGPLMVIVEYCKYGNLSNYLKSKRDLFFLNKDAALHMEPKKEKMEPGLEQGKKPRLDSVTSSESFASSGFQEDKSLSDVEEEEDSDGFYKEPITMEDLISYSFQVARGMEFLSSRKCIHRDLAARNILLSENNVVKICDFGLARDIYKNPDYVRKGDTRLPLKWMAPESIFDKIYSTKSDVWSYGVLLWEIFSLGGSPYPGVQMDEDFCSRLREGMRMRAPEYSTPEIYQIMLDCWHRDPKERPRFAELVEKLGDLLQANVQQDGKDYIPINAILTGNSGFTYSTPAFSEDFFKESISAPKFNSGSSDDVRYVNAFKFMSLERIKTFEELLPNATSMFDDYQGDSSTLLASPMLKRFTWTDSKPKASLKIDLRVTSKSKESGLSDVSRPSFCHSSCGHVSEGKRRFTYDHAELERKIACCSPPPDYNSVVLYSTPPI

Regarding `NC(=O)c1cccc2cn(-c3ccc([C@@H]4CCCNC4)cc3)nc12` [Niraparib], the percent of control binding at 10 µM in experiment [1] (setting [6]) stood at 100%; in experiment [2] (setting [6]) it was 100%; in experiment [3] (setting [6]), 79%; in experiment [4] (setting [6]), 98%; in experiment [5] (setting [6]), 87%.

Take `Cn1ncnc1[C@H]1c2n[nH]c(=O)c3cc(F)cc(c23)N[C@@H]1c1ccc(F)cc1` [Talazoparib]: the percent of control binding at 10 µM in experiment [1] (setting [7]) came out at 100%; in experiment [2] (setting [7]), 100%; in experiment [3] (setting [7]), 67%; in experiment [4] (setting [7]), 100%; in experiment [5] (setting [7]), 100%.

On to `CNCc1ccc(-c2[nH]c3cc(F)cc4c3c2CCNC4=O)cc1` [Rucaparib], for which the percent of control binding at 10 µM in experiment [1] (setting [8]) came out at 91%; in experiment [2] (setting [8]), 93%; in experiment [3] (setting [8]) it was 69%; in experiment [4] (setting [8]), 87%; in experiment [5] (setting [8]) it was 77%.

Turning to `O=C(c1cc(Cc2n[nH]c(=O)c3ccccc23)ccc1F)N1CCN(C(=O)C2CC2)CC1` [Olaparib], the percent of control binding at 10 µM amounted to 96% in experiment [1] (setting [9]); 99% in experiment [2] (setting [9]); 79% in experiment [3] (setting [9]); 100% in experiment [4] (setting [9]); 95% in experiment [5] (setting [9]).

These data come from PMC7026418, “The kinase polypharmacology landscape of clinical PARP inhibitors” (Scientific Reports, 2020).
